In patent US4812483A, “Insecticidal alkenes” (Imperial Chemical Industries PLC, priority 1985, dated 1989):

Assays:
Type in all cases: in vivo
[1] = system: Myzus persicae (aphids); test: Contact test, mortality of aphids (MP); conditions: 48 h, leaf, 2 days, read-out: grading of mortality, MP
Protocol: (§1) The activity of the compound was determined using a variety of insect pests. The compound was used in the form of liquid preparations containing 500 parts per million (ppm) by weight of the compound. The preparations were made by dissolving the compound in acetone and diluting the solutions with water containing 0.01% by weight of a wetting agent sold under the trade name "LISSAPOL" NX until the liquid preparations contained the required concentration of the compound. "Lissapol" is a Registered Trade Mark.
(§2) The test procedure adopted with regard to each pest was basically the same and comprised supporting a number of the pests on a medium which was usually a host plant or a foodstuff on which the pests feed, and treating either or both the pests and the medium with the preparations. The mortality of the pests was then assessed at periods usually varying from one to three days after the treatment.
(§3) The results of the tests are given in Table III for each of the compounds, at the rate in parts per million given in the second column as a grading of mortality designated as A, B or C wherein A indicates 80-100% mortality or knockdown, B indicates 50-79% mortality or knockdown and C indicates less than 50% mortality or knockdown.
(§4) In Table III the pest organism used is designated by a letter code and the pests species, the support medium or food, and the type and duration of test is given in Table II.

[2] = system: Blattella germanica (cockroach nymphs); test: Residual test, mortality of cockroach nymphs (BG); conditions: 72 h, plastic pot, 3 days, read-out: grading of mortality, BG
Protocol: as §1, §2, §3, §4

[3] = system: Musca domestica (houseflies - adults); test: Contact test, mortality of houseflies (MD); conditions: 24 h, cotton wool/sugar, 1 day, read-out: grading of mortality, MD
Protocol: as §1, §2, §3, §4

[4] = system: Diabrotica balteata (rootworm larvae); test: Residual test, mortality of rootworm larvae (DB); conditions: 72 h, filter paper/maize seed, 3 days, read-out: grading of mortality, DB
Protocol: as §1, §2, §3, §4

[5] = system: Nilaparvata lugens (green leaf hopper); test: Contact test, mortality of Nilaparvata lugens (NL); conditions: 144 h, cabbage leaf, 6 days, read-out: grading of mortality, NL
Protocol: as §1, §2, §3, §4

[6] = system: Heliothis viriscens (tobacco budworm); test: whole plant or invertebrate; conditions: in Gossypium hirsutum, 72 h, read-out: grading of mortality, HV
Protocol: as §1, §2, §3, §4

[7] = system: Chilo partellurs (Stem borers); test: Residual test, mortality of stem borers (CP); conditions: 72 h, oil seed rape leaf, 3 days, read-out: grading of mortality, CP
Protocol: as §1, §2, §3, §4

[8] = system: Tetranychus urticae (red spider mites - adult); test: Contact test, mortality of red spider mites (TU); conditions: 72 h, French bean leaf, 3 days, read-out: grading of mortality, TU
Protocol: as §1, §2, §3, §4
(red spider mites - adult)

| Compound | mortality at 500 ppm [1] | mortality at 500 ppm [2] | mortality at 500 ppm [3] | mortality at 500 ppm [4] | mortality at 500 ppm [5] | mortality at 500 ppm [6] | mortality at 500 ppm [7] | mortality at 500 ppm [8] |
| --- | --- | --- | --- | --- | --- | --- | --- | --- |
| CC(C)(C=C(Cl)Cl)COCc1ccc(F)c(Oc2ccccc2)c1 [Compound 1, 2,2-dimethyl-1-(4-fluoro-3-phenoxybenzyloxy)-4,4-dichlorobut-3-ene] | < 50% | 80 to 100% | 80 to 100% | 80 to 100% | 80 to 100% | 80 to 100% | 80 to 100% |  |
| CC(C)(C=C(F)Cl)COCc1cccc(Oc2ccccc2)n1 [Compound 19, E,Z-2,2-dimethyl-1-(6-phenoxypyrid-2-yl)methoxy-4-chloro-4-fluorobut-3-ene] | 50 to 79% | 50 to 79% |  | 80 to 100% | 80 to 100% | < 50% |  | 50 to 79% |
| C=CC(C)(CC)COCc1cccc(Oc2ccccc2)c1 (stereo not shown) [Compound 8, 3-Ethyl-3-methyl-4(3-phenoxybenzyloxy)but-1-ene] | < 50% | < 50% | 80 to 100% | 80 to 100% | 80 to 100% | < 50% |  | 80 to 100% |
| ClC(Cl)=CC1(COCc2cccc(Oc3ccccc3)c2)CC1 [Compound 9, 1-(2,2-dichlorovinyl)-1-(3-phenoxybenzyloxymethyl)cyclopropane] | 80 to 100% | 50 to 79% | 80 to 100% | 50 to 79% | 80 to 100% | < 50% |  | < 50% |
| CC(C)(C=C(F)F)COCc1ccc(F)c(Oc2ccccc2)c1 [Compound 15, 2,2-dimethyl-1-(4-fluoro-3-phenoxybenzyloxy)-4,4-difluorobut-3-ene] | 80 to 100% | 80 to 100% | 80 to 100% | 80 to 100% | 80 to 100% | 80 to 100% |  | 80 to 100% |
| CC(C)(C=C(F)Cl)COCc1cccc(Oc2ccccc2)c1 [Compound 11, Z,E-2,2-dimethyl-1-(3-phenoxybenzyloxy)-4-chloro-4-fluorobut-3-ene] | < 50% | 50 to 79% | 50 to 79% | 80 to 100% | 80 to 100% | 50 to 79% |  | < 50% |
| CC(C)(C=C(Cl)Cl)COCc1ccc(F)c(Cc2ccccc2)c1 [Compound 20, 2,2-dimethyl-1-(3-benzyl-4-fluorobenzyloxy)-4,4-dichlorobut-3-ene] | < 50% | < 50% |  | < 50% | 80 to 100% | < 50% |  | < 50% |
| CC(C)(C=C(F)F)COCc1cccc(Oc2ccccc2)c1 [Compound 17] | < 50% | 80 to 100% |  | 80 to 100% | 80 to 100% | < 50% |  | < 50% |
| C=CC(C)(C)COCc1ccc(F)c(Oc2ccccc2)c1 [Compound 5, 3,3-dimethyl-4-(4-fluoro-3-phenoxybenzyloxy)but-1-ene] | 80 to 100% | 80 to 100% | 80 to 100% | 80 to 100% | 80 to 100% | < 50% |  | 80 to 100% |
| C=CC(C)(C)COCc1cccc(Oc2ccccc2)n1 [Compound 12, 3,3-Dimethyl-4-(6-phenoxypyrid-2-yl)methoxy-but-1-ene] | < 50% | < 50% | < 50% | 80 to 100% | 80 to 100% | < 50% |  | < 50% |
| CC(C)(/C=C/Br)COCc1cccc(Oc2ccccc2)c1 [Compound 7, E-2,2-dimethyl-1-(3-phenoxybenzyloxy)-4-bromobut-3-ene] | < 50% | < 50% | < 50% | < 50% | 50 to 79% | < 50% | < 50% | < 50% |
| CC(C)(C=C(Cl)Cl)COCc1cccc(Oc2ccccc2)c1 [Compound 4, 2,2-dimethyl-1-(3-phenoxybenzyloxy)-4,4-dichlorobut-3-ene] | < 50% | < 50% | < 50% | < 50% | 80 to 100% | < 50% |  | < 50% |
| CC(C)(C=C(F)F)COCc1ccc(F)c(Cc2ccccc2)c1 [Compound 18] | < 50% | 80 to 100% |  | 80 to 100% | 80 to 100% | 80 to 100% |  | 50 to 79% |
| CC(C)(C=C(Br)Br)COCc1cccc(Oc2ccccc2)c1 [Compound 3, 2,2-dimethyl-1-(3-phenoxybenzyloxy)-4,4-dibromobut-3-ene] | < 50% | < 50% | < 50% | < 50% | 50 to 79% | < 50% | 80 to 100% |  |
| C=CC(C)(C)COCc1ccc(F)c(Cc2ccccc2)c1 [Compound 14, 3,3-Dimethyl-4-(3-benzyl-4-fluorobenzyloxy)but-1-ene] | < 50% | 50 to 79% | 80 to 100% | 80 to 100% | 80 to 100% | < 50% |  | < 50% |
| CC(C)(C=C(Cl)Cl)COCc1cccc(Oc2ccccc2)n1 [Compound 13, 2,2-dimethyl-1-(6-phenoxypyrid-2-yl)methoxy-4,4-dichlorobut-3-ene] | 50 to 79% | 80 to 100% | 50 to 79% | 80 to 100% | 80 to 100% | 80 to 100% |  | < 50% |
| C=CC(C)(C)COCc1cccc(Oc2ccccc2)c1 [Compound 2, 3,3-Dimethyl-4-(3-phenoxybenzyloxy)but-1-ene] | < 50% | < 50% | 80 to 100% | 80 to 100% | 80 to 100% | < 50% |  |  |
| CC(C)(C=C(F)F)COCc1cccc(Oc2ccccc2)n1 [Compound 16, 2,2-dimethyl-1-(6-phenoxypyrid-2-yl)methoxy-1,1-difluorobut-1-ene] | 80 to 100% | 80 to 100% |  | 80 to 100% | 80 to 100% | 80 to 100% |  | 80 to 100% |
| C=CC1(COCc2cccc(Oc3ccccc3)c2)CC1 [Compound 6, 1-(3-phenoxybenzyloxymethyl)-1-vinylcyclopropane] | < 50% | < 50% | < 50% | < 50% | 50 to 79% | < 50% | < 50% | < 50% |
| CC(C)(C=CCl)COCc1cccc(Oc2ccccc2)c1 [Compound 10, 2,2-dimethyl-1-(3-phenoxybenzyloxy)-4-chlorobut-3-ene] | < 50% | < 50% | 50 to 79% | 80 to 100% | 80 to 100% |  | < 50% | < 50% |
